We go through 4 molecules from paper PMC11876692, “Synthesis, physicochemical characterization and biological activity of novel pyrrole flavones” (Scientific Reports, 2025).

One series deals with 5637 cells. Briefly: MTT assay, cytotoxicity towards 5637 bladder cancer cells. In kind it is cell-based, human. To be noted: for IC50: Homo sapiens, MTT; for cell viability: preliminary experiment (10 µM implied). How it is done: (§1) Human urinary bladder grade II carcinoma cell line (5637), human urinary bladder carcinoma (HT-1376), and human lung fibroblasts (MRC-5) were purchased from ATCC (Manassas, VA, USA). The 5637 cells were grown in RPMI, HT-1376 cells were cultured in EMEM, and MRC-5 in DMEM. All media were supplemented with 10% (v/v) FBS, 2 mM L-glutamine, 100 U/mL penicillin, and […] streptomycin (1% v/v). The cells were cultured at 37 °C in a humidified atmosphere with 5% CO2.
(§2) Tested compounds were dissolved in DMSO at a concentration of 10 mM for preliminary study. […] Stock solutions were stored in the dark at -20 °C.
(§3) For the preliminary experiments, the 5637 cells were used. The compounds were prepared in the cell culture medium at a concentration of 0.1 µM, 1 µM, and 10 µM. DMSO was used as a control. […] Cells were treated with compounds for 24, 48, and 72 h. Cells were washed twice with DPBS, and 170 µL of MTT solution at a final concentration of 0.59 mg/mL in culture medium was added. Cells were incubated with MTT solution for 1.5 h at standard cell culture conditions. After incubation, MTT was removed, and formazan crystals were dissolved with 200 µL DMSO. The absorbance was measured at a wavelength of 570 nm using a plate reader (Biotek Instruments, Elx-800, Winooski, VT, USA).
(§4) Subsequently, cells were treated with compound 4a at a concentration of 0.5 µM, 1 µM, 2 µM, 4 µM, 6 µM, and 8 µM and compound 5b at a concentration range of 2 µM, 4 µM, 6 µM, 8 µM,10 µM, and 15 µM for 24 h and 48 h. […] The MTT assay was performed as described above.
(§5) The IC50 values were calculated using the GraphPad Prism 8 software (GraphPad Software, Inc., La Jolla, CA, USA), and cell viability was expressed as a percentage of the control. At least three biological replicates were performed for each compound.
Background: Tetrazolium dyes change colour on reduction, which living cells bring about.

Another series relates to Aliivibrio fischeri. Conditions: 10 µM.
The test system of the next series is HT-1376 cells. Briefly: MTT assay, cytotoxicity towards HT-1376 bladder cancer cells. Type of series: cell-based, human. How it is done:
as §1, §2, §3, §4, §5

The nature of series [1]: MTT assay, cytotoxicity towards non-cancerous MRC-5 fibroblasts. Type of series: cell-based, human. Conditions: human, MRC-5 lung fibroblasts, MRC-5 cells, 24 h, read-out: cell viability. The procedure: as §1, §2, §3, §4, §5
In a further series the test system is MRC-5 cells. Described as above. In kind it is cell-based, human. To be noted: for IC50: Homo sapiens, MTT; for effect on viability of MRC-5 cells: all tested concentrations (2-15 µM), 24 and 48 h. The procedure:
as §1, §2, §3, §4, §5

Setting [2] is: Homo sapiens, HT-1376, 24 h, 24 h.
Where [3] appears, read: Homo sapiens, HT-1376, 48 h, 48 h.

The structures appear in SMILES notation.

Procedure for Aliivibrio fischeri: All the synthesized derivatives were subjected to the Microtox test. […] The acute toxicity of the tested compounds was measured using the Microtox test. For the measurements, the 81.9% screening test procedure was applied using the Microtox [MUT] apparatus along with the Microtox Omni 4.2 software supplied by the manufacturer (Modern Water plc). Briefly, the bioluminescence of bacterial suspension was measured before the addition of the solution of the tested compound and after 5 and 15 min upon exposure. […] As the control, 2% sodium chloride solution was used (Modern Water Microtox Diluent).

For `Cc1ccc(C)n1-c1ccc2oc(-c3ccccc3)cc(=O)c2c1` [4a, 6-(2,5-Dimethylpyrrol-1-yl)-2-phenylchromen-4-one], the “effect on viability of cancer cells” value in the series on 5637 cells (10 µM) is listed as “did not affect the viability”. This molecule also came in with a decrease in bioluminescence with Aliivibrio fischeri of 80%.
Turning to `Cc1ccc(-c2ccccc2)n1-c1ccc2oc(-c3ccccc3)cc(=O)c2c1` [4b, 6-(2-Methyl-5-phenylpyrrol-1-yl)-2-phenylchromen-4-one], the IC50 – broadly, the concentration that inhibits the measured activity by half – in the series on 5637 cells (24 h) was 2.97 ± 0.17 µM; in the series on 5637 cells (48 h), 2.12 ± 0.19 µM; in the series on HT-1376 cells (24 h) it was 5.89 ± 1.1 µM; with HT-1376 cells (setting [2]) it was about 5 µM; with HT-1376 cells (setting [3]) it was 5.37 ± 1.44 µM; with MRC-5 cells (MRC5, 24 h), over 8 µM. In addition, inhibition in the series on MRC-5 cells (MRC5, 48 h) was half-maximal at 5.21 ± 0.1 µM (IC50). Further, the viability (usually a read-out of living cells in per cent, often relative to untreated cells) at 24 h, 6 µM in series [1] (6 µM) was 57%. The viability at 24 h, 8 µM in series [1] (8 µM) came out at 52%.
Consider `Cc1ccc(C)n1-c1ccc2c(=O)cc(-c3ccccc3)oc2c1` [5a, 7-(2,5-Dimethylpyrrol-1-yl)-2-phenylchromen-4-one], for which the cell viability (commonly a per cent measure of how many cells are alive, often set against a control) in the series on 5637 cells (48 h of incubation) is 75.8%; in the series on 5637 cells (72 h of incubation) it was 48%.
For `Cc1ccc(-c2ccccc2)n1-c1ccc2c(=O)cc(-c3ccccc3)oc2c1` [5b, 7-(2-Methyl-5-phenylpyrrol-1-yl)-2-phenylchromen-4-one], the 50% inhibitory concentration (IC50) was 7.39 ± 2.02 µM in the series with 5637 cells (24 h); 4.61 ± 0.1 µM in the series with 5637 cells (48 h); 13.5 ± 1.41 µM in the series with HT-1376 cells (24 h); about 13 µM with HT-1376 cells (setting [2]); 11.7 ± 1.74 µM with HT-1376 cells (setting [3]); over 15 µM in the series with MRC-5 cells (MRC5, 24 h). In addition, the IC50 with MRC-5 cells (MRC5, 48 h) was over 15 µM. Moreover, the “effect on viability of MRC-5 cells” value in the series with MRC-5 cells is “did not decrease cell viability”; in the series on MRC-5 cells (listed as flavone derivative with 7-(2-methyl-5-phenylpyrrol-1-yl)), “without any effect”.
